{"source": "patent US8236301B2", "about": "“Lumican proteoglycan in the diagnosis and treatment of atherosclerosis” (The General Hospital Corporation, priority 2005, dated 2012)", "test_system": "human umbilical vein endothelial cells (HUVECs)", "conditions": "confluent HUVECs, single bolus of physiologic levels of H2O2, 5 hr", "description": "HUVECs were treated with the indicated concentrations of H2O2 for 5 hours. The cells were harvested and the proteoglycans isolated and analyzed by Western blotting for lumican and biglycan.\nSince lumican proteoglycan is deposited at enhanced levels in atherosclerosis-prone arteries, it is possible that lumican proteoglycan is generated by cultured human umbilical vein endothelial cells (HUVECs). The production of lumican proteoglycan by cultured human umbilical vein endothelial cells (HUVECs) was examined in vitro. Confluent HUVECs in complete media with serum and growth supplements were treated with a single bolus addition of varying concentrations of H2O2. After 5 hr the cells were washed and harvested as described previously (Kattapuram et al. (2005) Journal of Biological Chemnistry 280, 15340-15347). The proteoglycans were then extracted, isolated and analyzed by immunoblotting for lumican and biglycan."}
{"smiles": "OO", "note": "[H2O2, Hydrogen Peroxide]", "values": [{"measurement": "upregulation of biglycan (immunoblot)", "value": "no upregulation"}, {"measurement": "upregulation of Lumican-PG100 (immunoblot)", "setting": "vs resting conditions", "value": "substantial upregulation"}]}
